# Measured values published in patent US20150005262A1, “HYPOXIA ACTIVATED PRODRUGS AND MTOR INHIBITORS FOR TREATING CANCER” (THRESHOLD PHARMACEUTICALS, INC., priority 2011, published 2015).
# “Also recorded” adds a separate entry of the source.
# How the values were obtained:
# mTOR = mTOR (Homo sapiens, UniProt P42345); conditions: cited from earlier work
# PI3K = conditions: read-out: IC50 for PI3-K; cited from earlier work
# DNA-PK = DNA-PK (Homo sapiens, UniProt P78527); conditions: cited from earlier work
# Chain of DNA-PK (P78527 whole entry): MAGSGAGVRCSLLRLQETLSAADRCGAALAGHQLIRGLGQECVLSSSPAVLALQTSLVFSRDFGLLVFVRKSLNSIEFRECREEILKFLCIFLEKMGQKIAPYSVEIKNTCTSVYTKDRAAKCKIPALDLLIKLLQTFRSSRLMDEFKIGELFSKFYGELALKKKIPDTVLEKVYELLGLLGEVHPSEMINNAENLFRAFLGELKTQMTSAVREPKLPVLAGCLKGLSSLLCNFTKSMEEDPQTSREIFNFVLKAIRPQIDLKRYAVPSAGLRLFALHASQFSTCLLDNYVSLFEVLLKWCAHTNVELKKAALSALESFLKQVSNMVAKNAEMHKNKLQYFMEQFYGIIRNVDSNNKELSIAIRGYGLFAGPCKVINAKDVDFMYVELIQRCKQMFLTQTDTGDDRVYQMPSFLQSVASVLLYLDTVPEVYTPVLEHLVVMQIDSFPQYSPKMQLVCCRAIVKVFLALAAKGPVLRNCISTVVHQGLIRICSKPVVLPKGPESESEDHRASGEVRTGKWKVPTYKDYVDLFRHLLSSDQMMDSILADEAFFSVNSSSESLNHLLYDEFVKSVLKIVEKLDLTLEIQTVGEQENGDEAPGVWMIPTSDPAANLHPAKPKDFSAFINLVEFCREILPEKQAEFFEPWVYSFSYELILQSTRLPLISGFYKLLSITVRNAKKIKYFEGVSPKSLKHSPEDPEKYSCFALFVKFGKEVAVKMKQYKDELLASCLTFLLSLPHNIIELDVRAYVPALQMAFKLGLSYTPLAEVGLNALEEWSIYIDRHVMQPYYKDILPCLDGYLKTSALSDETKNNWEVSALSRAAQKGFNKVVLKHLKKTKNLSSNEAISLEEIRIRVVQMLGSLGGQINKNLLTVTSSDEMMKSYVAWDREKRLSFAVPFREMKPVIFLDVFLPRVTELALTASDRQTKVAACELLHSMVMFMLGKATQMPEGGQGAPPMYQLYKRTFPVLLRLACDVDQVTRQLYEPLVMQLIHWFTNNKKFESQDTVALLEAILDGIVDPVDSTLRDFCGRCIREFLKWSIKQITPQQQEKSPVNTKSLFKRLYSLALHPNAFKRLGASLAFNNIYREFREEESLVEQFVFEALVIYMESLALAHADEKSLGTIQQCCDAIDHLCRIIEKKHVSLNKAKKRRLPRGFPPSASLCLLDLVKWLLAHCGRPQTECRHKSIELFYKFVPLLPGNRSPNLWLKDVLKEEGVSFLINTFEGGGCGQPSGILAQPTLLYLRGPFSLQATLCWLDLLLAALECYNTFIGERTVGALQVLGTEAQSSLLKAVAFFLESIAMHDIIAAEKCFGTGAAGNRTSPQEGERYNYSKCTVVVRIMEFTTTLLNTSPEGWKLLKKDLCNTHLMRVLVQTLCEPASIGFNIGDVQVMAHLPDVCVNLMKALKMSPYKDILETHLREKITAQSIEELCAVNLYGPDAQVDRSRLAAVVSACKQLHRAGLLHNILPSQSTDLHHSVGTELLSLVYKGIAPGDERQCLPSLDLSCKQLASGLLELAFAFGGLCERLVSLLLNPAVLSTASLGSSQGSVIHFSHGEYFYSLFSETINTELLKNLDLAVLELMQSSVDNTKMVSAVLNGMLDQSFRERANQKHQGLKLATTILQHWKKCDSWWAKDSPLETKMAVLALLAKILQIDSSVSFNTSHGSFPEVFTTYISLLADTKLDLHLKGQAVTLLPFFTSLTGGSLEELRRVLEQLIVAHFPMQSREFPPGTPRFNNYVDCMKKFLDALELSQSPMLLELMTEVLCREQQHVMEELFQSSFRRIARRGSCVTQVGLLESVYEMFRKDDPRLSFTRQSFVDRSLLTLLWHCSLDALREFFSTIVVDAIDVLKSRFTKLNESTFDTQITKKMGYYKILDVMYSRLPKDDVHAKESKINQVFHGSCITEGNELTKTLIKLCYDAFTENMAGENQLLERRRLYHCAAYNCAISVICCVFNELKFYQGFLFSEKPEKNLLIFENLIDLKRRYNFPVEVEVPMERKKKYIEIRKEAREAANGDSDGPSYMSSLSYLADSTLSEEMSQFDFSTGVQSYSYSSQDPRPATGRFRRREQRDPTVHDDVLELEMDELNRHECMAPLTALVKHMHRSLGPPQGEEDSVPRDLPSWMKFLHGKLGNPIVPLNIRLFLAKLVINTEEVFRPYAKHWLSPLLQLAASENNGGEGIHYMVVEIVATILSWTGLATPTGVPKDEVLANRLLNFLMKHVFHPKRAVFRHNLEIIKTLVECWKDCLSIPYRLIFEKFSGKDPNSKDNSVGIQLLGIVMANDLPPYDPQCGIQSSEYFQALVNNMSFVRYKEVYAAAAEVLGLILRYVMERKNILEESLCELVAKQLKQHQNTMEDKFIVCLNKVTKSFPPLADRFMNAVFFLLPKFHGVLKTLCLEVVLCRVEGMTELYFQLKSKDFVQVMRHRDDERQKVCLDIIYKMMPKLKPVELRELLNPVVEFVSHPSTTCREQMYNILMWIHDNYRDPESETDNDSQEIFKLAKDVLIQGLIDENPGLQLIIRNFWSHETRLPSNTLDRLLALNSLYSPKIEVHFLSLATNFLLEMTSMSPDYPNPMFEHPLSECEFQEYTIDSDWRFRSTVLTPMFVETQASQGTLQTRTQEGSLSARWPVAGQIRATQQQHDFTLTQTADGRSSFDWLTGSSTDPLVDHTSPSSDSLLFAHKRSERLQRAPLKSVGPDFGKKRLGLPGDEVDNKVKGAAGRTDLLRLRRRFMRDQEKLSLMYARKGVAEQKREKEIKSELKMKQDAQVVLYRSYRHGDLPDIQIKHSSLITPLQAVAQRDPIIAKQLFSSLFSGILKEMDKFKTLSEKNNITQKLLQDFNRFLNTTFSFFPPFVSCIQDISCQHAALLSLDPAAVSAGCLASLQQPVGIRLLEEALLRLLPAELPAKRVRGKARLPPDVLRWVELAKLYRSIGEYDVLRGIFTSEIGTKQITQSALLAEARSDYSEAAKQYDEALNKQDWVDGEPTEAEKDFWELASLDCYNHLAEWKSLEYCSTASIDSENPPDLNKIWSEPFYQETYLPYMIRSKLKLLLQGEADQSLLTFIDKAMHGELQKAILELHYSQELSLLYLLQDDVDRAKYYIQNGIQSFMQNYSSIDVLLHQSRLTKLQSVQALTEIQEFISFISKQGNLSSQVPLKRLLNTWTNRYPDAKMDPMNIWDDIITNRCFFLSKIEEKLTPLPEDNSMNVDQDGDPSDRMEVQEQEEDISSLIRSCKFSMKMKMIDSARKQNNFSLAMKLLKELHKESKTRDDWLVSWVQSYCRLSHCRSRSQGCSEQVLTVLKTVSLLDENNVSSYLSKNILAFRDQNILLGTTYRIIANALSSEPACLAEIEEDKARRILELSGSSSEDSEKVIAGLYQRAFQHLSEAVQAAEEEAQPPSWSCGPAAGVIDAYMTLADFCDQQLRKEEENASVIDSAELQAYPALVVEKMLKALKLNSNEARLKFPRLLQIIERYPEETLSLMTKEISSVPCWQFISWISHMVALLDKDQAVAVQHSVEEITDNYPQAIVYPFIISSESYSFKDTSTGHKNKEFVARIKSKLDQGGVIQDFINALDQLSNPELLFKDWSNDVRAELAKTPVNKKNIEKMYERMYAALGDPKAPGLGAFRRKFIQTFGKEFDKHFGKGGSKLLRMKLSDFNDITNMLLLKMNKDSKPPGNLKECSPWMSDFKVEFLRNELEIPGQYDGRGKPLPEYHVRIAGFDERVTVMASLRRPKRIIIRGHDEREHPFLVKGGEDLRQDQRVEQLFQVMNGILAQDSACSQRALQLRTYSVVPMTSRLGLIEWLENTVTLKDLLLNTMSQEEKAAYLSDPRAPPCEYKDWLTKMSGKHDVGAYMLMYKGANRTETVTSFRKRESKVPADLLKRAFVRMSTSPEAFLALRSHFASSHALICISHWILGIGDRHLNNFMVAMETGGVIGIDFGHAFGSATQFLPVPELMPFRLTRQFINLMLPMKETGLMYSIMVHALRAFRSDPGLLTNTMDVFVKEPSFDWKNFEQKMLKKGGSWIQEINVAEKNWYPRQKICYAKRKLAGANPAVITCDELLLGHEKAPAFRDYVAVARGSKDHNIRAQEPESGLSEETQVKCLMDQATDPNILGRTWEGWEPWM
# NCI-60 cell lines panel = conditions: cited from earlier work
# Caki-1 cells [1] = assay: Caki-1 RCC ectopic xenograft, TH-302 with everolimus; assay type: in vivo, nude mice; conditions: Caki-1 model; everolimus 5 mg/kg QD×19 p.o.; TH-302 50 mg/kg QD×5/week×3 weeks i.p.; both started day 1
# 786-0 cells [2] = assay: 786-0 RCC ectopic xenograft, TH-302 with everolimus; assay type: in vivo, nude mice; conditions: 786-0 model; everolimus 5 mg/kg QD×19 p.o.; TH-302 50 mg/kg QD×5/week×3 weeks i.p.; both started day 1
# SK-N-BE(2) cells = assay: SK-N-BE(2) ectopic neuroblastoma model, TH-302 with everolimus; assay type: in vivo; conditions: SK-N-BE(2) model; everolimus 5 mg/kg QD×19 oral; TH-302 50 mg/kg QD×5/week×3 weeks i.p.
# Caki-1 cells [3] = assay: Caki-1 RCC ectopic xenograft, TH-302 with temsirolimus; assay type: in vivo, nude mice; conditions: Caki-1 model, temsirolimus 20 mg/kg QD×19 i.p.
# Text: (§1) In one combination therapy group, the temsirolimus and TH-302 administration both began on day 1; in the other combination therapy group, the TH-302 administration was initiated on day 8 after the first temsirolimus administration. Thus, two TH-302 monotherapy groups served as comparison groups (one group starting on day 1 and the other starting on day 8). […] The weight returned to normal when treatment stopped.
# [4] = test system: 786-0 RCC xenograft tumors; assay: Tumor hypoxia (pimonidazole, morphometric analysis) in 786-0 xenograft; assay type: in vivo, nude mice; conditions: for tumor hypoxic fraction: everolimus 5 mg/kg oral QD×8, TH-302 150 mg/kg i.p., sampled 72 hr after TH-302
# [5] = test system: Caki-1 RCC xenograft tumors; assay: Tumor hypoxia (pimonidazole, morphometric analysis) in Caki-1 xenograft; assay type: in vivo, nude mice; conditions: for tumor hypoxic fraction: temsirolimus 20 mg/kg i.p. QD×8, TH-302 150 mg/kg i.p., sampled 72 hr after TH-302; for change of tumor hypoxia (in words): vs vehicle, combination vs mTOR inhibitor alone
# Description: Nude mice bearing 786-0 or Caki-1 RCC xenograft tumors were randomized into 4 groups (6-8 mice/group): vehicle, mTOR inhibitor, TH-302 monotherapy, and TH-302 in combination with mTOR inhibitor, respectively. In the mTOR inhibitor monotherapy group, animals were dosed with a QD×8 regimen, and tumors were sampled 4 hr after the last treatment. In the TH-302 monotherapy group, 150 mg/kg was administered intraperitoneally to the animals, and the tumors were sampled 72 hr after the TH-302 treatment. In the combination therapy group, TH-302 was administered 4 hr after the last dose of mTOR inhibitor (QD×8, oral), and the tumors were sampled 72 hr later. Pimonidazole was administered 1 hr before euthanization (tumors were sampled on euthanization).
# A dose of 20 mg/kg of temsirolimus was administered intraperitoneally in the Caki-1 xenograft model. […] After temsirolimus treatment, the tumor hypoxic fraction was 12.8±0.7%, as compared to 7.5±1.9% in vehicle treated group (p<0.05). The tumor hypoxic fraction in the TH-302 monotherapy group was 4.3±0.7%.
# Ki67, CD31, p-S6 = assay: Pharmacodynamic study using immunohistochemistry of tumor tissue; assay type: in vivo, nude mice; conditions: after 7 days treatment of everolimus
# 786-0 cells [6] = assay: 786-0 RCC ectopic xenograft, TH-302 with temsirolimus; assay type: in vivo, nude mice; conditions: 786-0 model; temsirolimus 20 mg/kg QD×19 i.p.; TH-302 50 mg/kg QD×5/week×2 to 3 weeks i.p.; combination range covers day 1 and day 8 schedules
# Text: as §1
smiles,measurement,setting,value
O=c1cc(N2CCOCC2)oc2c(-c3cccc4c3sc3ccccc34)cccc12 [NU7441],IC50,mTOR,1700 nM
same,IC50,PI3K,5000 nM
same,IC50,DNA-PK,10 nM
COc1ccc(COc2cc3oc(=O)c4cc(C(C)O)ccc4c3cc2OC)cc1 (stereo not drawn) [Palomid 529],GI50,NCI-60 cell lines panel,< 35000 nM
Cn1c(COP(=O)(NCCBr)NCCBr)cnc1[N+](=O)[O-] [TH-302],tumor growth inhibition (TGI),Caki-1 cells [1],57%
same,tumor growth inhibition (TGI),786-0 cells [2],did not demonstrate statistically significant efficacy; also recorded: did not demonstrate statistically significant TGI
same,tumor growth inhibition (TGI),SK-N-BE(2) cells,45%
same,tumor growth inhibition (TGI),Caki-1 cells [3]; TH-302 50 mg/kg i.p. starting on day 1,79%
same,tumor growth inhibition (TGI),Caki-1 cells [3]; TH-302 50 mg/kg i.p. starting on day 8,89%
same,tumor hypoxic fraction,[4],3.7±1.2%
same,tumor hypoxic fraction,[5],4.3±0.7%
same,change of tumor hypoxia (in words),[5],reduces the size of the hypoxic region
c1cncc(CN2CCC(n3ncc4c(N5CCOCC5)nc(-c5ccc6[nH]ccc6c5)nc43)CC2)c1 [WAY-600],IC50,mTOR,9 nM
COC(=O)Nc1ccc(-c2nc(N3CCOCC3)c3cnn(C4CCN(C(=O)OC)CC4)c3n2)cc1 [WYE-354],IC50,mTOR,5 nM
CNC(=O)Nc1ccc(-c2nc(N3CC4CCC(C3)O4)c3cnn(C4CCC5(CC4)OCCO5)c3n2)cc1 [WYE-125132],IC50,mTOR,0.19 nM
CO[C@H]1C[C@@H]2CC[C@@H](C)[C@@](O)(O2)C(=O)C(=O)N2CCCC[C@H]2C(=O)O[C@H]([C@H](C)C[C@@H]2CC[C@@H](OCCO)[C@H](OC)C2)CC(=O)[C@H](C)/C=C(\C)[C@@H](O)[C@@H](OC)C(=O)[C@H](C)C[C@H](C)/C=C/C=C/C=C/1C [everolimus],tumor growth inhibition (TGI),Caki-1 cells [1],52%
same,tumor growth inhibition (TGI),786-0 cells [2],49%
same,tumor growth inhibition (TGI),SK-N-BE(2) cells,40%
same,tumor hypoxic fraction,[4],6.3±1.5%
same,change of tumor hypoxia (in words),"[4]; vs vehicle, combination vs mTOR inhibitor alone",increased hypoxia in the tumor; also recorded: significantly increases tumor hypoxia
same,cell proliferation (expression of nuclear antigen Ki67),"Ki67, CD31, p-S6",significantly decreased
same,microvessel density (angiogenic marker CD31),"Ki67, CD31, p-S6",significantly decreased
same,phosphorylation of the S6 ribosomal protein (p-S6),"Ki67, CD31, p-S6",significantly decreased
same,IC50,mTOR,0.6 nM
CO[C@H]1C[C@@H]2CC[C@@H](C)[C@@](O)(O2)C(=O)C(=O)N2CCCC[C@H]2C(=O)O[C@H]([C@H](C)C[C@@H]2CC[C@@H](OC(=O)C(C)(CO)CO)[C@H](OC)C2)CC(=O)[C@H](C)/C=C(\C)[C@@H](O)[C@@H](OC)C(=O)[C@H](C)C[C@H](C)/C=C/C=C/C=C/1C [temsirolimus],tumor growth inhibition (TGI),786-0 cells [6],113%
same,tumor hypoxic fraction,[5],12.8±0.7%
same,change of tumor hypoxia (in words),[5],significant increase of tumor hypoxia; also recorded: significantly increases tumor hypoxia
